Assay results taken from patent US5972963A, “3-aryl-2-(1-substituted 4-piperidinyl)-1,1-dioxo-3H-benzo[D]isothiazoles and related compounds” (Hoechst Marion Roussel, Inc., priority 1997, dated 1999).
Where a name gives a salt, the structure may show the parent alone. Read-outs that look alike come from different tables or passages of the source.

Legend:
[1] = system: norepinephrine (NE) uptake, rat whole brain synaptosomes; experiment: Inhibition of [^3 H]-Norepinephrine Uptake in Rat Whole Brain or Hypothalamic Synaptosomes; assay type: biochemical; conditions: at 3.16 μmn
Description: Inhibition of [^3 H]-Norepinephrine Uptake in Rat Whole Brain or Hypothalamic Synaptosomes
This assay is used as a biochemical screen for potential antidepressants which block norepinephrine uptake.
(§1) A. Animals: Male CR Wistar rats (100-125 g).
3. L(-)-Norepinephrine bitartrate is obtained from Sigma Chemical Co. A 0.1 mM stock solution is made up in 0.01 N HCl. This is used to dilute the specific activity of theradiolabeled NE.
4. Levo-[Ring-2,5,6-^3 H]-Norepinephrine (40-50 Ci/mmol) is obtained from New England Nuclear.
The final desired concentration of [^3 H]-NE in the assay is 50 nM. The dilution factor is 0.8. Therefore, the KHBB is made up to contain 62.5 nM [^3 H]-NE.
(§2) 5. For most assays, a 1 mM stock solution of the test compound is made up in a suitable solvent and serially diluted such that the final concentration in the assay ranges from 2×10^-8 to 2×10^-5 M. Seven concentrations are used for each assay. Higher or lower concentrations may be used depending on the potency of the compound.
(§3) Male Wistar rats are decapitated and the brain rapidly removed. Either whole brain minus cerebella or hypothalamus is weighed and homogenized in 9 volumes of ice-cold 0.32 M sucrose using a Potter-Elvejhem homogenizer. Homogenization should be done with 4-5 up and down strokes at medium speeds to minimize synaptosome lysis. TH homogenate is centrifuged at 1000 g for 10 minutes at 0°-4° C. The supernatant (S1) is decanted and is used for uptake experiments.
(§4) 20 μl Vehicle or appropriate drug concentration
Tubes are incubated at 37° C., under a 95% O2 /5% CO2 atmosphere for 5 minutes. For each assay, 3 tubes are incubated with 20 μl of vehicle at 0° C. in a ice bath. After incubation all tubes are immediately centrifuged at 4000 g for 10 minutes. The supernatant fluid is aspirated and the pellets dissolved by adding 1 ml of solubilizaer (Triton X-100+50% EtOH, 1:4 v/v). The tubes are vigorously vortexed, decanted into scientillation vials, and counted in 10 ml of Liquiscint scintillation countering cocktail. Active uptake is the difference between cpm at 37° C. and 0C. The percent inhibition at each drug concentration is the mean of three determinations IC50 values are derived from log-probit analysis.

[2] = system: serotonin (5HT) uptake, rat whole brain synaptosomes; experiment: Inhibition of [^3 H]-Serotonin Uptake in Rat Whole Brain Synaptosomes; assay type: biochemical; conditions: at 3.16 μmn
Description: Inhibition of [^3 H]-Serotonin Uptake in Rat Whole Brain Synaptosomes
This assay is used a biochemical screen for compounds which block serotonin (5 HT) uptake, which may be useful as antidepressants and for the treatment of personality disorders such as obsessive compulsive disorder.
as §1
3. Serotonin creatinine SO4 is obtained from Sigma Chemical Co. A 0.1 mM stock solution is made up in 0.01 N HCl. This is used to dilute the specific activity of radiolabeled 5 HT.
4. 5-[1,2-^3 H(N)]-Hydroxytryptamine creatinine sulfate (Serotonin), specific activity 20-30 Ci/mmol is obtained from New England Nuclear.
The final desired concentration of ^3 H-5 HT in the assay is 50 nM. The dilution factor is 0.8. Therefore, the KHBB is made up to contain 62.5 nM [^3 H]-5 HT.
as §2, with “mM” for “mM stock”, “in” for “in a”
as §3, with “Whole” for “Either whole”, “cerebella” for “cerebella or hypothalamus”, “The” for “TH”
800 μl KHBB +[^3 H]-5 HT.
as §4
(§5) Tubes are incubated at 37° C. under a 95% O2 /5% CO2 atmosphere for 5 minutes. For each assay, 3 tubes are incubated with 20 μl of vehicle at 0° C. in an ice bath. After incubation all tubes are immediately centrifuged at 4000 g for 10 minutes. The supernatant fluid is aspirated and the pellets dissolved by adding 1 ml of solubilizer (Triton X-100+50% EtOH, 1:4 v/v). The tubes are vigorously vortexed, decanted into scintillation vials, and counted in 10 ml of Liquiscint scintillation counting cocktail. Active uptake is the difference between cpm at 37° C. and 0° C. The percent inhibition at each drug concentration is the mean of three determinations. IC50 values are derived from log-probit analysis.

[3] = system: dopamine (DA) uptake, rat striatal synaptosomes; experiment: Inhibition of ^3 H-Dopamine Uptake in Rat Striatal Synaptosomes; assay type: biochemical; conditions: at 3.16 μmn; head: whole brain synaptosomes, protocol: striatal synaptosomes
Description: Inhibition of ^3 H-Dopamine Uptake in Rat Striatal Synaptosomes
this assay is used to show differential drug effects on dopamine uptake versus nerepppinephrine uptake and to identify therapeutic agents for diseases where the potentiation of dopaminergic activity may be helpful (e.g. Parkinson's Disease).
as §1
3. Dopamine HCl is obtained from Sigma Chemical Co. A 0.1 mM stock solution is made up in 0.01 N HCl. This is used to dilute the specific activity of radiolabeled 5 HT.
4. 3,4-[8-^3 H(N)]-Dihydroxyphenylethylamine (Dopamine), specific activity 4-34 Ci/mmol is obtained from New England Nuclear.
The final desired concentration of ^3 H-DA in the assay is 50 nM. The dilution factor is 0.9. Therefore, the KHBB is made up to contain 55.5 nM [^3 H]-5 DA.
as §2
as §3, with “Corpora striata are rapidly removed,” for “Either whole brain minus cerebella or hypothalamus is”, “The” for “TH”, “(S)” for “(S1)”
as §4, §5

dopamine (DA) uptake = conditions: cited from earlier work
5 HT uptakes sites = conditions: in vitro receptor binding, literature; cited from earlier work
[4] = system: norepinephrine (NE) uptake; conditions: literature; cited from earlier work
serotonin (5 HT) uptake = conditions: literature; cited from earlier work

Row | SMILES | % inhibition NE [1] [%] | % inhibition 5HT [2] [%] | % inhibition DA [3] [%] | DA uptake inhibition (dopamine (DA) uptake; literature) | NE uptake inhibition [4] | other results
1 | COc1cc(C(C)=O)ccc1OCCCN1CCC(N2C(c3ccc(Cl)cc3)c3ccccc3S2(=O)=O)CC1 (centres unmarked) [1-[4-(3-{4-[3-(4-Chlorophenyl)-1,1-dioxo-3H-benzo[d]isothiazol-2-yl]-1-piperidin-1-yl}-propoxy)-3-methoxyphenyl]-ethanone maleate] | 55.23 | 48.78 | 67.94 | – | – | –
2 | C[C@@H](N)Cc1ccccc1 [1-amphetamine] | – | – | – | no stereo selectivity for the inhibition of DA uptake | – | –
3 | O=C(O)/C=C\C(=O)O.O=C1c2ccccc2C(=O)N1CCCN1CCC(N2C(c3ccc(Cl)cc3)c3ccccc3S2(=O)=O)CC1 (centres unmarked) [2-(3-{4-[3-(4-Chlorophenyl)-1,1-dioxo-3H-benzo[d]isothiazol-2-yl]piperidin-1-yl}propyl)-isoindol-1,3-dione maleate] | 28.37 | 29.02 | 57.36 | – | – | –
4 | O=C(O)/C=C\C(=O)O.O=S1(=O)c2ccccc2C(c2ccc(Cl)cc2)N1C1CCN(CCO)CC1 (centres unmarked) [2-{4-[3(4-Chlorophenyl)-1,1-dioxo-3H-benzo[d]isothiazol-2-yl]-piperidin-1-yl}-ethanol maleate] | 8.71 | 3.68 | 18.71 | – | – | –
5 | Cl.O=S1(=O)c2ccccc2C(c2ccc(F)cc2)N1C1CCNCC1 (centres unmarked) [3-(4-Fluorophenyl)-2-(4-piperidinyl)-2,3-dihydrobenzo[d]isothiazole-1,1-dioxide hydrochloride] | 25.02 | 37.92 | 30.34 | – | – | –
6 | CN(C)CCCN1c2ccccc2CCc2ccccc21 [[^3 H]-imipramine] | – | – | – | – | – | labelling of 5 HT uptake sites (5 HT uptakes sites): labels 5 HT uptakes sites
7 | CC(NC(C)(C)C)C(=O)c1cccc(Cl)c1 (centres unmarked) [bupropion] | – | – | – | inhibit DA uptake | – | –
8 | COC(=O)[C@H]1[C@@H](OC(=O)c2ccccc2)C[C@@H]2CC[C@H]1N2C [cocaine] | – | – | – | potently inhibited | potently inhibited | –
9 | C[C@H](N)Cc1ccccc1 [d-amphetamine] | – | – | – | no stereo selectivity for the inhibition of DA uptake | – | –
10 | CNCCCN1c2ccccc2CCc2ccccc21 [desipramine] | – | – | – | – | more active than the tertiary amines (e.g. imipramine) | –
11 | C[C@@H]1O[C@@H](O[C@H]2C[C@@H](O)[C@]3(CO)[C@H]4[C@H](O)C[C@]5(C)[C@@H](C6=CC(=O)OC6)CC[C@]5(O)[C@@H]4CC[C@]3(O)C2)[C@H](O)[C@H](O)[C@H]1O [ouabain] | – | – | – | – | also inhibited | DA uptake inhibition (dopamine (DA) uptake): potently inhibited
12 | CC(COc1ccccc1)N(CCCl)Cc1ccccc1 (centres unmarked) [phenoxybenzarrine] | – | – | – | – | also inhibited | –
13 | CN(C)C/C=C(/c1ccc(Br)cc1)c1cccnc1 [zimelidine] | – | – | – | – | – | 5 HT uptake inhibition (serotonin (5 HT) uptake): fairly selective effects on 5 HT uptakes
